This note sets out measurements from ChEMBL document CHEMBL1201862, “PubChem BioAssay data set” (2004).

Among the test systems are A498; CCRF-CEM; DU-145; Hs-578T; K562; KM12; MCF7; MDA-N; MOLT-4; NCI-H460; RPMI-8226; RXF 393; SF-268; SK-MEL-2; SK-OV-3; TK-10; PC-3; SK-MEL-5; SW-620.
Test in all cases: NCI tumour cell line growth inhibition, 48 h

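Results reflect a 48-hour exposure of cells in 96-well plates to compound at five concentrations. GI50 = concentration required for 50% inhibition of growth.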 Active and inactive are the calls of the source. No stated cut-off is given here; in the data, active = GI50 up to about 1.1 µM and inactive = higher. A value given as a limit tells only on which side of the number the result lay.

As for `CC1CN=C(NCc2ccccc2)S1` (stereo not drawn), the GI50 in the test with A498 is > 100 µM (inactive); with CCRF-CEM, > 100 µM (inactive); with DU-145, > 100 µM (inactive); with Hs-578T it was > 100 µM (inactive); with K562, 48.2 µM (inactive); in the test with KM12 it was > 100 µM (inactive). The GI50 in the test with MCF7 was > 100 µM (inactive); with MDA-N, 28.4 µM (inactive); in the test on MOLT-4, > 100 µM (inactive); with NCI-H460 it was > 100 µM (inactive); with RPMI-8226, > 100 µM (inactive); with RXF 393 it was 4.17 µM (inactive). The GI50 in the test on SF-268, in the test on SK-MEL-2, in the test with SK-OV-3 and with TK-10 was > 100 µM (inactive) throughout.
On to `COC(C/C=C\C=C\CC/C=C/CC(C)/C=C/C(=C\C(=O)O)CC(=O)O)/C(C)=C\C=C(/C)C(=O)O` (stereo not drawn), for which the GI50 was > 100 µM (inactive) in the test with A498; > 100 µM (inactive) in the test with CCRF-CEM; > 100 µM (inactive) in the test with DU-145; 61.7 µM (inactive) with Hs-578T; > 100 µM (inactive) in the test on KM12; > 100 µM (inactive) with MDA-N. The GI50 with MOLT-4, with NCI-H460, with PC-3, with RPMI-8226, in the test on SF-268 and with SK-MEL-2 was > 100 µM (inactive) each time. The GI50 with SK-MEL-5 was 99.3 µM (inactive); with SK-OV-3, > 100 µM (inactive); in the test with SW-620, > 100 µM (inactive); with TK-10 it was > 100 µM (inactive).
Take `Cc1ccc(/N=N/NCCCCN/N=N/c2ccc(C)cc2)cc1`: the GI50 with A498 was 54.6 µM (inactive); in the test with CCRF-CEM, 1 µM (active); with DU-145, 32 µM (inactive); in the test on Hs-578T, > 100 µM (inactive); in the test on K562, > 100 µM (inactive); in the test with MCF7 it was 78.3 µM (inactive). The GI50 in the test on MDA-N is 16.5 µM (inactive); in the test with MOLT-4 it was 14.2 µM (inactive); in the test on NCI-H460 it was 12.5 µM (inactive); in the test on PC-3 it was 4.22 µM (inactive); with RXF 393, > 100 µM (inactive); with SF-268, 96.8 µM (inactive). In addition, the GI50 in the test with SK-MEL-2 is > 100 µM (inactive); in the test with SK-MEL-5 it was 23.4 µM (inactive); in the test with SK-OV-3, > 100 µM (inactive); in the test on SW-620 it was > 100 µM (inactive); in the test on TK-10, 1.65 µM (inactive).
`Cc1cc(S(=O)(=O)n2ccnc2O)c(SCCCN(C)C)cc1Cl`: the GI50 in the test on A498, with CCRF-CEM, in the test with DU-145, with Hs-578T, with K562 and in the test with KM12 was > 100 µM (inactive) throughout. Further, the GI50 in the test on MCF7, in the test on MDA-N, in the test on MOLT-4, in the test with NCI-H460, in the test on PC-3 and in the test with RXF 393 was > 100 µM (inactive) each time. Further, the GI50 with SF-268, in the test on SK-MEL-2, with SK-MEL-5, with SK-OV-3, in the test with SW-620 and with TK-10 was > 100 µM (inactive) throughout.
`CC1(C)CC(=O)C2=C(C1)NC(=S)C(C#N)C2c1ccccc1` (stereo not drawn): the GI50 is > 100 µM (inactive) in the test with CCRF-CEM; > 100 µM (inactive) in the test with DU-145; > 100 µM (inactive) in the test on Hs-578T; 75.9 µM (inactive) in the test on K562; > 100 µM (inactive) in the test on MCF7; > 100 µM (inactive) with MDA-N. Further, the GI50 in the test on NCI-H460, in the test with PC-3, in the test with RXF 393, with SF-268, with SK-MEL-2 and in the test on SK-MEL-5 was > 100 µM (inactive) each time. The GI50 in the test with SK-OV-3, in the test on SW-620 and in the test on TK-10 was > 100 µM (inactive) throughout.
On to `CCN(CC)/C(Cl)=C(Cl)\C(=C1\Nc2ccc(OC)cc21)[N+](=O)[O-]`, for which the GI50 in the test on A498 is > 100 µM (inactive); in the test with CCRF-CEM it was 20.1 µM (inactive); in the test on DU-145, 37.8 µM (inactive); with Hs-578T it was 78.7 µM (inactive); in the test on K562 it was 31.7 µM (inactive); with KM12, 69.5 µM (inactive). Further, the GI50 with MCF7 was 54.8 µM (inactive); in the test on MDA-N it was 50.4 µM (inactive); in the test with MOLT-4, 23.1 µM (inactive); with NCI-H460, 31.1 µM (inactive); in the test with PC-3, 31.6 µM (inactive); in the test on RXF 393 it was 15.7 µM (inactive). Further, the GI50 in the test with SF-268 was 50.4 µM (inactive); in the test on SK-MEL-5, 28.6 µM (inactive); in the test with SK-OV-3, 75.5 µM (inactive); with SW-620, 43 µM (inactive); in the test with TK-10, 83.6 µM (inactive).
With `O=C(CSC1=NCCN1)Nc1ccccc1`, the GI50 was 35 µM (inactive) in the test on A498; 67.9 µM (inactive) in the test with CCRF-CEM; 33.7 µM (inactive) in the test with DU-145; 28.1 µM (inactive) in the test with Hs-578T; 40.6 µM (inactive) in the test on K562; 48 µM (inactive) with KM12. Besides, the GI50 was 17.7 µM (inactive) with MDA-N; 52.1 µM (inactive) with MOLT-4; 31.1 µM (inactive) in the test with NCI-H460; 19.9 µM (inactive) with PC-3; 41.2 µM (inactive) with RPMI-8226; 13.8 µM (inactive) in the test with RXF 393. For the same molecule, the GI50 is 33.3 µM (inactive) with SF-268, 17.8 µM (inactive) in the test on SK-MEL-2, 25.8 µM (inactive) in the test on SW-620 and 19.2 µM (inactive) in the test on TK-10.
With `O=C(Cn1c2c(c3ccccc31)CCCC2)N1CCCCC1`, the GI50 with Hs-578T, in the test with MCF7, in the test on MDA-N, with MOLT-4, with NCI-H460 and in the test on PC-3 was > 100 µM (inactive) throughout. Also, the GI50 in the test with RPMI-8226, in the test on SK-MEL-2, with SK-MEL-5, in the test on SK-OV-3, in the test on SW-620 and in the test with TK-10 was > 100 µM (inactive) in each case.
On to `[O-][S+](Nc1ccccc1)c1ccc(-c2ccccc2)cc1` (stereo not drawn), for which the GI50 with CCRF-CEM was > 100 µM (inactive); in the test on DU-145 it was > 100 µM (inactive); in the test with Hs-578T, > 100 µM (inactive); in the test with K562, > 100 µM (inactive); in the test on KM12, 58.6 µM (inactive); in the test with MCF7 it was > 100 µM (inactive). The GI50 in the test on MDA-N, in the test on MOLT-4, in the test on NCI-H460, in the test with RPMI-8226, in the test on SF-268 and in the test with SK-MEL-5 was > 100 µM (inactive) in each case. Also, the GI50 with SW-620 and in the test on TK-10 was > 100 µM (inactive) in each case.
Regarding `CCC/C=C/C=C/C1CC(O)C(O)C(=O)C1CO` (stereo not drawn), the GI50 in the test on CCRF-CEM, in the test on DU-145, in the test on Hs-578T, in the test with K562, in the test on KM12 and in the test on MCF7 was > 100 µM (inactive) in each case. Moreover, the GI50 in the test on MDA-N is > 100 µM (inactive); in the test on NCI-H460, > 100 µM (inactive); in the test on PC-3, 51.1 µM (inactive); with RPMI-8226 it was > 100 µM (inactive); with RXF 393, > 100 µM (inactive); in the test on SF-268, > 100 µM (inactive). Besides, the GI50 in the test with SK-MEL-2, with SK-MEL-5, in the test on SK-OV-3, with SW-620 and in the test on TK-10 was > 100 µM (inactive) throughout.
For the molecule `CC(C)(C)C(=O)C(N)C(=O)C(C)(C)C`, the GI50 in the test with CCRF-CEM, in the test with DU-145, in the test on Hs-578T, in the test with K562, in the test with KM12 and in the test on MCF7 was > 100 µM (inactive) throughout. Moreover, the GI50 in the test with MDA-N was > 100 µM (inactive); with MOLT-4 it was 9.57 µM (inactive); with NCI-H460, > 100 µM (inactive); with PC-3, > 100 µM (inactive); in the test on RPMI-8226, > 100 µM (inactive); in the test with RXF 393 it was > 100 µM (inactive). In addition, the GI50 in the test on SF-268, with SK-MEL-2, in the test on SK-MEL-5, in the test on SK-OV-3, in the test with SW-620 and in the test on TK-10 was > 100 µM (inactive) in each case.
Consider `O=C(O)c1ccccn1` [2-PICOLINIC ACID], for which the GI50 in the test on A498, in the test with CCRF-CEM, in the test with Hs-578T, in the test on K562, in the test on KM12 and in the test on MCF7 was > 100 µM (inactive) in each case. Moreover, the GI50 in the test with MDA-N, with MOLT-4, with NCI-H460, in the test on PC-3, with RPMI-8226 and in the test on RXF 393 was > 100 µM (inactive) throughout. The GI50 with SF-268, in the test with SK-MEL-2, in the test with SK-MEL-5, in the test on SW-620 and in the test with TK-10 was > 100 µM (inactive) in each case.
